Laboratory results as given in the supplement of paper PMC10307832.

Assays:
Assay in all cases: relative viability (nuclei count vs DMSO), 5 days (fraction); higher = more cells survive
GSK126 + Palbociclib = compound: CC[C@H](C)N1C=C(C2=C(C=C(C=C21)C3=CN=C(C=C3)N4CCNCC4)C(=O)NCC5=C(C=C(NC5=O)C)C)C [GSK126] + CC(=O)c1c(C)c2cnc(Nc3ccc(N4CCNCC4)cn3)nc2n(C2CCCC2)c1=O [Palbociclib] (partner 0.5 µM)
In short: (§1)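 Nuclei were stained with Hoechst during a one-step fixation (final 0.05% Triton X-100, 1% formaldehyde, 1 ug/ml Hoechst) carried out 5 days after dosing, then counted on 4× images. The cells, lung cancer lines in 1536-well plates, had been dosed by pin tool the day after seeding with one drug alone or a fixed anchor-drug dose plus five library-drug doses (not always all listed) in √10 steps. Relative viability is the nuclei count in treated wells divided by that in vehicle wells, and each value is the median of duplicate plates.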

Carboplatin + Olaparib = compound: C1CC(C1)(C(=O)O)C(=O)O.[NH2-].[NH2-].[Pt+2] [Carboplatin] + O=C(c1cc(Cc2n[nH]c(=O)c3ccccc23)ccc1F)N1CCN(C(=O)C2CC2)CC1 [Olaparib] (partner 8 µM)
In short: as §1

GSK126 + Foretinib = compound: CC[C@H](C)N1C=C(C2=C(C=C(C=C21)C3=CN=C(C=C3)N4CCNCC4)C(=O)NCC5=C(C=C(NC5=O)C)C)C [GSK126] + COc1cc2c(Oc3ccc(NC(=O)C4(C(=O)Nc5ccc(F)cc5)CC4)cc3F)ccnc2cc1OCCCN1CCOCC1 [Foretinib] (partner 0.25 µM)
In short: as §1

MLN4924 + Decitabine = compound: NS(=O)(=O)OC[C@@H]1C[C@@H](n2ccc3c(N[C@H]4CCc5ccccc54)ncnc32)C[C@@H]1O [MLN4924] + Nc1ncn([C@H]2C[C@H](O)[C@@H](CO)O2)c(=O)n1 [Decitabine] (partner 2 µM)
In short: as §1

Row | Cell Line | relative viability (GSK126 + Palbociclib; first compound 0.08 µM) | relative viability (GSK126 + Palbociclib; first compound 0.253 µM) | relative viability (GSK126 + Palbociclib; first compound 0.8 µM) | relative viability (GSK126 + Palbociclib; first compound 2.53 µM) | relative viability (GSK126 + Palbociclib; first compound 8 µM) | relative viability (Carboplatin + Olaparib; first compound 0.08 µM) | relative viability (Carboplatin + Olaparib; first compound 0.253 µM) | relative viability (Carboplatin + Olaparib; first compound 0.8 µM) | relative viability (Carboplatin + Olaparib; first compound 2.53 µM) | relative viability (Carboplatin + Olaparib; first compound 8 µM) | relative viability (GSK126 + Foretinib; first compound 0.08 µM) | relative viability (GSK126 + Foretinib; first compound 0.253 µM) | relative viability (GSK126 + Foretinib; first compound 0.8 µM) | relative viability (GSK126 + Foretinib; first compound 2.53 µM) | relative viability (GSK126 + Foretinib; first compound 8 µM) | relative viability (MLN4924 + Decitabine; first compound 0.04 µM) | relative viability (MLN4924 + Decitabine; first compound 0.1265 µM) | relative viability (MLN4924 + Decitabine; first compound 0.4 µM) | relative viability (MLN4924 + Decitabine; first compound 1.265 µM) | relative viability (MLN4924 + Decitabine; first compound 4 µM)
1 | 201T | 0.442 | 0.356 | 0.378 | 0.387 | 0.382 | 0.869 | 0.836 | 0.872 | 0.822 | 0.774 | 1.17 | 1.1 | 1.11 | 1.37 | 1.33 | 0.88 | 0.653 | 0.582 | 0.368 | 0.293
2 | A549 |  |  |  |  |  | 0.332 | 0.388 | 0.314 | 0.329 | 0.174 | 1.01 | 0.974 | 0.922 | 0.954 | 0.904 | 0.213 | 0.189 | 0.112 | 0.0579 | 0.0418
3 | A-427 | 0.534 | 0.519 | 0.517 | 0.5 | 0.491 | 0.733 | 0.695 | 0.88 | 0.648 | 0.712 | 1.31 | 0.999 | 1.07 | 1.1 | 1.13 | 0.445 | 0.421 | 0.309 | 0.282 | 0.265
4 | ABC-1 | 0.768 | 0.735 | 0.675 | 0.98 | 0.675 | 1.09 | 0.759 | 0.781 | 0.654 | 0.553 | 1.31 | 1.15 | 0.955 | 1.14 | 0.959 | 1.12 | 1.33 | 0.929 | 0.28 | 0.402
5 | BEN | 0.482 | 0.41 | 0.5 | 0.506 | 0.473 | 1.21 | 1.12 | 1.11 | 0.837 | 0.596 | 0.712 | 0.767 | 0.575 | 0.683 | 0.607 | 0.517 | 0.436 | 0.383 | 0.288 | 0.243
6 | CAL-12T | 0.491 | 0.458 | 0.515 | 0.416 | 0.41 | 0.727 | 0.783 | 0.673 | 0.741 | 0.648 | 1.13 | 1.12 | 1.09 | 1 | 1.25 |  |  |  |  | 
7 | COR-L23 | 0.307 | 0.265 | 0.259 | 0.279 | 0.352 | 0.329 | 0.3 | 0.301 | 0.246 | 0.157 | 1.06 | 0.931 | 0.921 | 0.932 | 1.01 | 0.465 | 0.431 | 0.321 | 0.156 | 0.138
8 | COR-L 105 | 0.42 | 0.423 | 0.421 | 0.377 | 0.415 | 0.766 | 0.756 | 0.518 | 0.544 | 0.456 | 1.23 | 1.08 | 0.989 | 0.871 | 0.99 | 0.658 | 0.523 | 0.397 | 0.263 | 0.328
9 | Calu-6 |  |  |  |  |  | 0.582 | 0.552 | 0.541 | 0.475 | 0.298 | 1.02 | 0.934 | 0.896 | 0.829 | 0.978 |  |  |  |  | 
10 | ChaGo-K-1 | 0.93 | 0.905 | 0.914 | 1.04 | 0.914 | 0.43 | 0.409 | 0.376 | 0.332 | 0.362 | 1.07 | 1.06 | 0.878 | 1 | 0.835 | 0.409 | 0.276 | 0.297 | 0.2 | 0.184
11 | EBC-1 |  |  |  |  |  | 0.775 | 0.694 | 0.725 | 0.624 | 0.567 | 0.117 | 0.113 | 0.0893 | 0.102 | 0.0935 |  |  |  |  | 
12 | EKVX | 0.455 | 0.366 | 0.38 | 0.405 | 0.363 | 0.856 | 0.81 | 0.872 | 0.734 | 0.671 | 0.755 | 0.881 | 0.782 | 0.876 | 0.903 | 0.35 | 0.369 | 0.346 | 0.22 | 0.191
13 | EMC-BAC-2 | 0.519 | 0.515 | 0.516 | 0.503 | 0.499 | 0.483 | 0.484 | 0.447 | 0.461 | 0.385 | 1.07 | 0.964 | 0.706 | 0.98 | 1.03 | 0.829 | 0.663 | 0.428 | 0.219 | 0.264
14 | EPLC-272H | 0.344 | 0.324 | 0.33 | 0.374 | 0.301 | 0.857 | 0.777 | 0.798 | 0.73 | 0.527 | 0.809 | 0.789 | 0.736 | 0.742 | 0.754 | 0.325 | 0.284 | 0.0744 | 0.108 | 0.106
15 | H3255 | 0.291 | 0.316 | 0.319 | 0.296 | 0.31 | 0.567 | 0.643 | 0.522 | 0.531 | 0.434 | 1.07 | 0.887 | 0.894 | 0.987 | 0.983 | 0.469 | 0.392 | 0.338 | 0.228 | 0.218
16 | HARA | 0.325 | 0.238 | 0.249 | 0.296 | 0.279 | 0.881 | 0.794 | 0.806 | 0.775 | 0.692 | 1.14 | 0.93 | 0.874 | 0.877 | 0.839 | 0.496 | 0.379 | 0.379 | 0.203 | 0.156
17 | HCC-15 | 0.759 | 0.855 | 0.692 | 0.573 | 0.671 | 0.664 | 0.729 | 0.693 | 0.57 | 0.492 | 1.08 | 1.04 | 1.08 | 1.04 | 0.887 | 0.322 | 0.217 | 0.17 | 0.0917 | 0.111
